Assay results: ChEMBL document CHEMBL3885861, “Open TG-GATES”

Organism: Rattus norvegicus
Experiment: Open TG-GATES - Regimen: Single
Format: toxicity, organism-based, Sprague-Dawley
Design: regimen Single, gender Male, age 6 weeks
Settings: in vivo, po, route gavage; for APTT / Bas / Eos / Fbg / Hb / Ht / Lym / MCH / MCHC / MCV / Mono / Neu / PT / Plat / RBC / Ret / WBC: tissue Blood; for KIDNEY_L / KIDNEY_R / KIDNEY_TOTAL: tissue Kidney; for LIVER: tissue Liver; for A/G / ALP / ALT / AST / BUN / CRE / Ca / Cl / DBIL / GLC / IP / K / LDH / Na / PL / RALB / TBIL / TC / TG / TP / gamma-GTP: tissue Plasma
[1] = 150 mg/kg, 3 h, dose level Middle
[2] = 150 mg/kg, 6 h, dose level Middle
[3] = 150 mg/kg, 9 h, dose level Middle
[4] = 150 mg/kg, 24 h, dose level Middle
[5] = 500 mg/kg, 3 h, dose level High
[6] = 500 mg/kg, 6 h, dose level High
[7] = 500 mg/kg, 9 h, dose level High
[8] = 500 mg/kg, 24 h, dose level High

## CN1C(=O)OC(C)(C)C1=O [TRIMETHADIONE]
[1]
  TERMINAL_BW: 208.1 g
  APTT: 15.9 s
  Bas: 0%
  Eos: 0.6%
  Fbg: 262.2 mg/dL
  Hb: 13.4 g/dL
  Ht: 40.4%
  Lym: 78.8%
  MCH: 21.4 pg
  MCHC: 33.2%
  MCV: 64.6 fL
  Mono: 2.4%
  Neu: 17.2%
  PT: 13.5 s
  Plat: 114.9 x10_4/uL
  RBC: 625.4 x10_4/ul
  Ret: 7.7%
  WBC: 81.5 x10_2/uL
  KIDNEY_L: 0.9 g
  KIDNEY_R: 0.9 g
  KIDNEY_TOTAL: 1.8 g
  LIVER: 9.1 g
  A/G: 0.9
  ALP: 1472.2 IU/L
  ALT: 38.4 IU/L
  AST: 70.6 IU/L
  BUN: 10 mg/dL
  CRE: 0.2 mg/dL
  Ca: 10.6 mg/dL
  Cl: 108 meq/L
  DBIL: 0.004 mg/dL
  GLC: 177.8 mg/dL
  IP: 8.3 mg/dL
  K: 4.2 meq/L
  LDH: 106 IU/L
  Na: 141 meq/L
  PL: 144.4 mg/dL
  RALB: 2.5 g/dL
  TBIL: 0.056 mg/dL
  TC: 75 mg/dL
  TG: 82 mg/dL
  TP: 5.3 g/dL
  gamma-GTP: 1 IU/L
[2]
  TERMINAL_BW: 209 g
  APTT: 16.3 s
  Bas: 0.2%
  Eos: 1%
  Fbg: 267 mg/dL
  Hb: 13.4 g/dL
  Ht: 40.1%
  Lym: 80.8%
  MCH: 21.7 pg
  MCHC: 33.3%
  MCV: 65.3 fL
  Mono: 2.4%
  Neu: 15.2%
  PT: 13.8 s
  Plat: 126.8 x10_4/uL
  RBC: 614.2 x10_4/ul
  Ret: 8.4%
  WBC: 94.5 x10_2/uL
  KIDNEY_L: 0.9 g
  KIDNEY_R: 0.9 g
  KIDNEY_TOTAL: 1.8 g
  LIVER: 8.6 g
  A/G: 0.9
  ALP: 1642.2 IU/L
  ALT: 36.2 IU/L
  AST: 72.2 IU/L
  BUN: 8.6 mg/dL
  CRE: 0.2 mg/dL
  Ca: 10.6 mg/dL
  Cl: 107.4 meq/L
  DBIL: 0.004 mg/dL
  GLC: 175.8 mg/dL
  IP: 8.9 mg/dL
  K: 4.3 meq/L
  LDH: 79.4 IU/L
  Na: 140.6 meq/L
  PL: 139.4 mg/dL
  RALB: 2.4 g/dL
  TBIL: 0.062 mg/dL
  TC: 76 mg/dL
  TG: 54.6 mg/dL
  TP: 5.2 g/dL
  gamma-GTP: 1 IU/L
[3]
  TERMINAL_BW: 204.4 g
  APTT: 17.8 s
  Bas: 0%
  Eos: 1%
  Fbg: 276 mg/dL
  Hb: 13.2 g/dL
  Ht: 39.8%
  Lym: 76%
  MCH: 21.7 pg
  MCHC: 33.2%
  MCV: 65.5 fL
  Mono: 2.2%
  Neu: 20.8%
  PT: 14 s
  Plat: 119.5 x10_4/uL
  RBC: 608.8 x10_4/ul
  Ret: 8.3%
  WBC: 84 x10_2/uL
  KIDNEY_L: 0.9 g
  KIDNEY_R: 0.9 g
  KIDNEY_TOTAL: 1.8 g
  LIVER: 7.8 g
  A/G: 0.9
  ALP: 1417.8 IU/L
  ALT: 33.8 IU/L
  AST: 72.2 IU/L
  BUN: 7.2 mg/dL
  CRE: 0.2 mg/dL
  Ca: 10.3 mg/dL
  Cl: 109.8 meq/L
  DBIL: 0 mg/dL
  GLC: 164.4 mg/dL
  IP: 9.9 mg/dL
  K: 3.9 meq/L
  LDH: 118.2 IU/L
  Na: 142.4 meq/L
  PL: 137.4 mg/dL
  RALB: 2.5 g/dL
  TBIL: 0.066 mg/dL
  TC: 74.4 mg/dL
  TG: 32.4 mg/dL
  TP: 5.3 g/dL
  gamma-GTP: 1 IU/L
[4]
  TERMINAL_BW: 217.7 g
  APTT: 20.8 s
  Bas: 0%
  Eos: 1%
  Fbg: 279.8 mg/dL
  Hb: 13.8 g/dL
  Ht: 41.1%
  Lym: 78.2%
  MCH: 21.7 pg
  MCHC: 33.5%
  MCV: 64.9 fL
  Mono: 2.6%
  Neu: 18%
  PT: 13.4 s
  Plat: 112.6 x10_4/uL
  RBC: 634.2 x10_4/ul
  Ret: 6.8%
  WBC: 104 x10_2/uL
  KIDNEY_L: 0.9 g
  KIDNEY_R: 0.9 g
  KIDNEY_TOTAL: 1.9 g
  LIVER: 9.6 g
  A/G: 0.9
  ALP: 2022.8 IU/L
  ALT: 50 IU/L
  AST: 81 IU/L
  BUN: 15.4 mg/dL
  CRE: 0.2 mg/dL
  Ca: 10.7 mg/dL
  Cl: 104.6 meq/L
  DBIL: 0.006 mg/dL
  GLC: 171.6 mg/dL
  IP: 7.9 mg/dL
  K: 4.3 meq/L
  LDH: 116.2 IU/L
  Na: 143 meq/L
  PL: 148.2 mg/dL
  RALB: 2.6 g/dL
  TBIL: 0.056 mg/dL
  TC: 76.4 mg/dL
  TG: 83 mg/dL
  TP: 5.6 g/dL
  gamma-GTP: 1 IU/L
[5]
  TERMINAL_BW: 212 g
  APTT: 16.8 s
  Bas: 0%
  Eos: 0.8%
  Fbg: 267.8 mg/dL
  Hb: 12.7 g/dL
  Ht: 38.3%
  Lym: 79.2%
  MCH: 21.5 pg
  MCHC: 33.2%
  MCV: 64.8 fL
  Mono: 2.4%
  Neu: 17%
  PT: 14 s
  Plat: 113.4 x10_4/uL
  RBC: 591.4 x10_4/ul
  Ret: 8.8%
  WBC: 80.3 x10_2/uL
  KIDNEY_L: 1 g
  KIDNEY_R: 0.9 g
  KIDNEY_TOTAL: 1.9 g
  LIVER: 9.1 g
  A/G: 0.9
  ALP: 1375.2 IU/L
  ALT: 39.6 IU/L
  AST: 70.6 IU/L
  BUN: 8.6 mg/dL
  CRE: 0.2 mg/dL
  Ca: 10.5 mg/dL
  Cl: 107.2 meq/L
  DBIL: 0.002 mg/dL
  GLC: 174.2 mg/dL
  IP: 8.8 mg/dL
  K: 4.2 meq/L
  LDH: 108 IU/L
  Na: 139.4 meq/L
  PL: 150.4 mg/dL
  RALB: 2.4 g/dL
  TBIL: 0.058 mg/dL
  TC: 84.2 mg/dL
  TG: 60.6 mg/dL
  TP: 5.2 g/dL
  gamma-GTP: 1 IU/L
[6]
  TERMINAL_BW: 209.4 g
  APTT: 16.1 s
  Bas: 0.2%
  Eos: 1.2%
  Fbg: 280.2 mg/dL
  Hb: 12.9 g/dL
  Ht: 38.9%
  Lym: 79.6%
  MCH: 21.1 pg
  MCHC: 33.1%
  MCV: 63.7 fL
  Mono: 1.6%
  Neu: 17%
  PT: 14.1 s
  Plat: 121.7 x10_4/uL
  RBC: 611.6 x10_4/ul
  Ret: 8.2%
  WBC: 94.3 x10_2/uL
  KIDNEY_L: 1 g
  KIDNEY_R: 0.9 g
  KIDNEY_TOTAL: 1.9 g
  LIVER: 8.5 g
  A/G: 0.9
  ALP: 1302 IU/L
  ALT: 31 IU/L
  AST: 66.8 IU/L
  BUN: 8.2 mg/dL
  CRE: 0.2 mg/dL
  Ca: 10.6 mg/dL
  Cl: 107.2 meq/L
  DBIL: 0 mg/dL
  GLC: 173.2 mg/dL
  IP: 9.4 mg/dL
  K: 4.1 meq/L
  LDH: 72 IU/L
  Na: 141 meq/L
  PL: 139.2 mg/dL
  RALB: 2.4 g/dL
  TBIL: 0.058 mg/dL
  TC: 80.2 mg/dL
  TG: 35.8 mg/dL
  TP: 5.2 g/dL
  gamma-GTP: 1.4 IU/L
[7]
  TERMINAL_BW: 209 g
  APTT: 15.6 s
  Bas: 0%
  Eos: 0.8%
  Fbg: 253.2 mg/dL
  Hb: 12.6 g/dL
  Ht: 37.9%
  Lym: 75.2%
  MCH: 21.4 pg
  MCHC: 33.4%
  MCV: 64.3 fL
  Mono: 1.8%
  Neu: 21.8%
  PT: 14.5 s
  Plat: 117.7 x10_4/uL
  RBC: 589.4 x10_4/ul
  Ret: 8%
  WBC: 81.5 x10_2/uL
  KIDNEY_L: 1 g
  KIDNEY_R: 1 g
  KIDNEY_TOTAL: 2 g
  LIVER: 8.2 g
  A/G: 0.9
  ALP: 1539.2 IU/L
  ALT: 29 IU/L
  AST: 65.4 IU/L
  BUN: 7.6 mg/dL
  CRE: 0.2 mg/dL
  Ca: 10.2 mg/dL
  Cl: 105.8 meq/L
  DBIL: 0 mg/dL
  GLC: 158.4 mg/dL
  IP: 10.3 mg/dL
  K: 3.8 meq/L
  LDH: 69.4 IU/L
  Na: 140.6 meq/L
  PL: 127.8 mg/dL
  RALB: 2.4 g/dL
  TBIL: 0.056 mg/dL
  TC: 67.4 mg/dL
  TG: 28.2 mg/dL
  TP: 5.1 g/dL
  gamma-GTP: 1.2 IU/L
[8]
  TERMINAL_BW: 215.3 g
  APTT: 17.7 s
  Bas: 0%
  Eos: 0.8%
  Fbg: 286.8 mg/dL
  Hb: 13.6 g/dL
  Ht: 40.5%
  Lym: 78%
  MCH: 21.1 pg
  MCHC: 33.6%
  MCV: 62.7 fL
  Mono: 2.6%
  Neu: 18.4%
  PT: 13.8 s
  Plat: 129.1 x10_4/uL
  RBC: 646.2 x10_4/ul
  Ret: 6.9%
  WBC: 101.5 x10_2/uL
  KIDNEY_L: 0.9 g
  KIDNEY_R: 1 g
  KIDNEY_TOTAL: 1.9 g
  LIVER: 9.7 g
  A/G: 0.9
  ALP: 1799.8 IU/L
  ALT: 49.4 IU/L
  AST: 82.2 IU/L
  BUN: 13 mg/dL
  CRE: 0.2 mg/dL
  Ca: 10.6 mg/dL
  Cl: 101.6 meq/L
  DBIL: 0.006 mg/dL
  GLC: 165.2 mg/dL
  IP: 7.4 mg/dL
  K: 3.9 meq/L
  LDH: 96.8 IU/L
  Na: 144 meq/L
  PL: 137.2 mg/dL
  RALB: 2.6 g/dL
  TBIL: 0.046 mg/dL
  TC: 75.6 mg/dL
  TG: 99.4 mg/dL
  TP: 5.6 g/dL
  gamma-GTP: 1 IU/L
